For test [1], the target named is T1, Calpain-2 catalytic subunit (Homo sapiens, UniProt P17655).
T1 sequence (P17655 whole entry): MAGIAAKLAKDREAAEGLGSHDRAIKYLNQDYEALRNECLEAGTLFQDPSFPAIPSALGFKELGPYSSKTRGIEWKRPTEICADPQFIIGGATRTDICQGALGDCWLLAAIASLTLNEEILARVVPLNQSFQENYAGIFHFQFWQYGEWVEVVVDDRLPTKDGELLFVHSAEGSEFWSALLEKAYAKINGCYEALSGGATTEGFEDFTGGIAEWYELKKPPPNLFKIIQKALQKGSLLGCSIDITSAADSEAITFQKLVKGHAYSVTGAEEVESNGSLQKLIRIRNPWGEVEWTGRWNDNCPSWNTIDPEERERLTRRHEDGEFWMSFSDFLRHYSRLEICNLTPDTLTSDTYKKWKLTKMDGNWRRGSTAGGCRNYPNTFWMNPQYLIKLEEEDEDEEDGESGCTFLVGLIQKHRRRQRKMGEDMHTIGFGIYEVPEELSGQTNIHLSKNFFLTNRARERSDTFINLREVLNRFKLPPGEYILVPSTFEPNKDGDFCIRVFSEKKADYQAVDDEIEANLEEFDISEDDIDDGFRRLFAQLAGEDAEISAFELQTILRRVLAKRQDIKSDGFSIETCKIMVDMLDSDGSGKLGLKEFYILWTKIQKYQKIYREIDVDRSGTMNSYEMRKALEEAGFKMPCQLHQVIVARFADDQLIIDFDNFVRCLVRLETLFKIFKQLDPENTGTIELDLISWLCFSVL
Briefly: Compound was tested for its inhibitory activity against calpain 2.

For test [2], the target named is T2, Cathepsin B (Homo sapiens, UniProt P07858). Briefly: Compound was tested for its inhibitory activity against cathepsin B.
Test [3] in a line: Compound was tested for its inhibitory activity against cathepsin L.
In test [4] the target is T2, Cathepsin B. Briefly: Ratio of Inhibitory activity against cathepsin B/cathepsin L.
For test [5], the target named is Chymotrypsinogen A (Bos taurus) (UniProt P00766). Briefly: Compound was tested for its inhibitory activity against alpha-chymotrypsin at concentration less than 1000 ng/ml; no inhibition.
The target of test [6] is T1, Calpain-2 catalytic subunit. Briefly: Compound was tested for its inhibitory activity against Calpain 2.

Activity calls are given as the source filed them. The rule behind the calls is not given here. Where a SMILES comes first, the peptide text is derived from it. The star is where a group is joined. Cbz = O=C(OCc1ccccc1)*

With `CCCCOc1ccc(C[C@H](NC(=O)[C@H](Cc2ccccc2)NC(=O)OCc2ccccc2)C(=O)O)cc1`, the IC50 in test [1] is 79.6 nM; in test [2], 836 nM; in test [3] it was 6.96 nM. For the same molecule, in test [4], the Ratio was 120.
`C[C@H](NC(=O)[C@H](Cc1ccccc1)NC(=O)OCc1ccccc1)C(=O)O`: in test [5], the inhibition result is “inactive”. Besides, the results for the IC50 in test [2] and in test [3] were 45.1 nM and 15.5 nM, respectively. In addition, the Ratio in test [4] came out at 2.91.
For `CC(C)C[C@H](NC(=O)[C@H](Cc1ccccc1)NC(=O)OCc1ccccc1)C(=O)O` (Cbz-Phe-Leu-OH), in that order: “inactive”, 17.7 nM, 0.78 nM and 22.7.
With `O=C(N[C@@H](Cc1ccccc1)C(=O)N[C@@H](Cc1ccccc1)C(=O)O)OCc1ccccc1` (Cbz-Phe-Phe-OH), the inhibition result in test [5] is “inactive”. Besides, the IC50 came out at 69.7 nM in test [2], 0.74 nM in test [3] and 104 nM in test [6]. Moreover, in test [4], the Ratio came out at 94.2.
With `COc1ccc(C[C@H](NC(=O)[C@H](Cc2ccccc2)NC(=O)OCc2ccccc2)C(=O)O)cc1` (Cbz-Phe-Tyr(Me)-OH), in test [5], the inhibition result was “inactive”. For the same molecule, the IC50 in test [1] stood at 104 nM; in test [2], 97.7 nM; in test [3] it was 2.95 nM. The Ratio in test [4] worked out at 33.1.
On the same counts, the results for `O=C(N[C@@H](Cc1ccccc1)C(=O)N[C@@H](Cc1ccc(O)cc1)C(=O)O)OCc1ccccc1` (Cbz-Phe-Tyr-OH) are “inactive”, 184 nM, 85.1 nM, 0.85 nM and 100.
Regarding `CC(=O)N[C@@H](CC(C)C)C(=O)N[C@@H](CC(C)C)C(=O)N[C@H](C=O)CCCNC(=N)N` [LEUPEPTIN], the inhibition result in test [5] is “inactive”. The results for the IC50 in test [2] and in test [3] were 117 nM and 70.3 nM, respectively. Further, the Ratio in test [4] is 1.66.

One may read the IC50 as the point on the concentration scale where inhibition reaches its midpoint. A high value points to a need for much substance.

For the origin of these results see ChEMBL document CHEMBL1128764, “Peptidyl aldehyde derivatives as potent and selective inhibitors of cathepsin L” (Bioorg Med Chem Lett, 1995).
